Laboratory results as given in publication PMC10676384, “Core-dependent post-translational modifications guide the biosynthesis of a new class of hypermodified peptides” (Nature Communications, 2023).

Tested on: CcaF
Test: In vitro CcaF leader peptide removal assay
Type: biochemical, Chryseobacterium carnipullorum DSM25581
Conditions: substrate:CcaF 100:1 to 20:1; 50 mM Tris-HCl pH 8.0, RT overnight; MALDI-TOF MS
Excerpt: To identify the position of each modification and characterize the final product, the leader peptide must be excised. To this end, we focused on the putative peptidase CcaF. The sequence of CcaF is annotated as a S8 (subtilisin type) serine protease and contains a classical Asp-His-Ser catalytic triad. Recombinant CcaF was heterologously expressed in E. coli BL21(DE3) and purified as a polyHis-tagged protein (Supplementary Fig. 7). […] Given the structural divergence amongst these modified peptides, CcaF appears to be a protease with a broad substrate scope.
The leader peptide was removed by protease CcaF. The reactions were performed in a 1.5 mL eppendorf tube with optimized ratio (100:1 to 20:1) of different substrates and CcaF in 50 mM Tris-HCl (pH =8.0) buffer at RT overnight. The substrates are different modified full length precursor peptide and synthetic 10-mer peptide. The reaction was monitored by MALDI-TOF MS, if the digestion was not completed, another 50:1 ratio CcaF protease was added and stay at RT for another 8 hours.

Sequence: DELSATAAAA [10-mer peptide]
- cleavage by protease CcaF: digested at the expected position
